How the values were obtained:
[1] = molecular target: T1, Cytoplasmic tyrosine-protein kinase BMX (Homo sapiens) (UniProt P51813); assay: Inhibition of human BMX at 500 nM by HotSpot assay relative to control
T1 sequence (whole entry): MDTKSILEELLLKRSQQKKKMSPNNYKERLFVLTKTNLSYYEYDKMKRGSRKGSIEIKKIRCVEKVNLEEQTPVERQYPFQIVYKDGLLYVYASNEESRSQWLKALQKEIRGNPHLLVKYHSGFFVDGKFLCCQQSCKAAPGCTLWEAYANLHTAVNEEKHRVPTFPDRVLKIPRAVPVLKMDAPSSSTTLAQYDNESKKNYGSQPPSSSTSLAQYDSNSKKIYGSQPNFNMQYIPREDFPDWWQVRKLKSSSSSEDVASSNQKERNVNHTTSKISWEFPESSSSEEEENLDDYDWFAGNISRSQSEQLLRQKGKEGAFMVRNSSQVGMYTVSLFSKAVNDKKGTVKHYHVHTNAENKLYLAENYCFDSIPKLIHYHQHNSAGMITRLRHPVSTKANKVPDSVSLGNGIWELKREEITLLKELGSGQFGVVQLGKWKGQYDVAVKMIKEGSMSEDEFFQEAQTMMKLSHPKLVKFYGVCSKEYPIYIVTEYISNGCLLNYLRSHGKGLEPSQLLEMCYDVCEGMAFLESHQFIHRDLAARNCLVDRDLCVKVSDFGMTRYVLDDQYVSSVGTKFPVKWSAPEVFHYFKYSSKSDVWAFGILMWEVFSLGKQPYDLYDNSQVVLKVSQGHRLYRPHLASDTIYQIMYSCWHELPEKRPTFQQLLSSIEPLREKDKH

[2] = molecular target: T2, Calcium/calmodulin-dependent protein kinase type IV (Homo sapiens) (UniProt Q16566); assay: Inhibition of human CAMK4 at 500 nM by HotSpot assay relative to control
T2 sequence (whole entry): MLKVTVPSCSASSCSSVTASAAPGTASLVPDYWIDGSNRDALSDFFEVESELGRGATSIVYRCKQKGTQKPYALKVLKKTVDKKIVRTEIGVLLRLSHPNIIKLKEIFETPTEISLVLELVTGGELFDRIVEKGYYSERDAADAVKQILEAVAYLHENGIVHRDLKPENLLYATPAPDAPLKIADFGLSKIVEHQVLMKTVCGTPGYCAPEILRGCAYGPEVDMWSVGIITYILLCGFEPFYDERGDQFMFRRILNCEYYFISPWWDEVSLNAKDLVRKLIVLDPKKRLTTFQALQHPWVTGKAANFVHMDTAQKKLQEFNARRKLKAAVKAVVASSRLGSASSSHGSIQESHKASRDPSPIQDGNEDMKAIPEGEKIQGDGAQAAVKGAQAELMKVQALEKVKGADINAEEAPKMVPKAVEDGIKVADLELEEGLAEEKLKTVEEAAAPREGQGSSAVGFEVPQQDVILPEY

[3] = molecular target: CDK3/Cyclin E (Homo sapiens) (UniProt P24864+Q00526); assay: Inhibition of human CDK3/cyclin E at 500 nM by HotSpot assay relative to control; format: protein-complex assay
[4] = molecular target: T3, Serine/threonine-protein kinase DCLK2 (Homo sapiens) (UniProt Q8N568); assay: Inhibition of human DCAMKL2 at 500 nM by HotSpot assay relative to control
T3 sequence (whole entry): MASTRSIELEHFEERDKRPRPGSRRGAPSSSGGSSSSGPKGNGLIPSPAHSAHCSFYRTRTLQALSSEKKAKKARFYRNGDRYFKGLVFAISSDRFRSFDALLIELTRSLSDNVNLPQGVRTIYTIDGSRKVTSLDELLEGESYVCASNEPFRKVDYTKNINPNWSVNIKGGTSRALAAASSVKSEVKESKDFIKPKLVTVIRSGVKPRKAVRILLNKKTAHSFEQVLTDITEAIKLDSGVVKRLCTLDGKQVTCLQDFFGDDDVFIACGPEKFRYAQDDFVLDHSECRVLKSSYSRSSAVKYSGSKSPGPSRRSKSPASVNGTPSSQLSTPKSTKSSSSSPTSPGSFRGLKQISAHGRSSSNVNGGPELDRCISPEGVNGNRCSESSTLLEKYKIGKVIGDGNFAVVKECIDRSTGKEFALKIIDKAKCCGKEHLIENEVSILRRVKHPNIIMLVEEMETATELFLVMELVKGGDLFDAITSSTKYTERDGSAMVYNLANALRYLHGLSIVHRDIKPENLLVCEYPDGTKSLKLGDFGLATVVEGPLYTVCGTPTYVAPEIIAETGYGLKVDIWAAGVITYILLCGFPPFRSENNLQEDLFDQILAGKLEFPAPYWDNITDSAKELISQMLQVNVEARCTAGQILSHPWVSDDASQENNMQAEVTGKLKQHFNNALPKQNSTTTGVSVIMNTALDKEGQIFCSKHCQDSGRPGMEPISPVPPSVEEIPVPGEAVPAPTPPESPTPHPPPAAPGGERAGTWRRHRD

[5] = molecular target: T4, Serine/threonine-protein kinase D1 (Homo sapiens) (UniProt Q15139); assay: Inhibition of human PRKD1 at 500 nM by HotSpot assay relative to control
T4 sequence (whole entry): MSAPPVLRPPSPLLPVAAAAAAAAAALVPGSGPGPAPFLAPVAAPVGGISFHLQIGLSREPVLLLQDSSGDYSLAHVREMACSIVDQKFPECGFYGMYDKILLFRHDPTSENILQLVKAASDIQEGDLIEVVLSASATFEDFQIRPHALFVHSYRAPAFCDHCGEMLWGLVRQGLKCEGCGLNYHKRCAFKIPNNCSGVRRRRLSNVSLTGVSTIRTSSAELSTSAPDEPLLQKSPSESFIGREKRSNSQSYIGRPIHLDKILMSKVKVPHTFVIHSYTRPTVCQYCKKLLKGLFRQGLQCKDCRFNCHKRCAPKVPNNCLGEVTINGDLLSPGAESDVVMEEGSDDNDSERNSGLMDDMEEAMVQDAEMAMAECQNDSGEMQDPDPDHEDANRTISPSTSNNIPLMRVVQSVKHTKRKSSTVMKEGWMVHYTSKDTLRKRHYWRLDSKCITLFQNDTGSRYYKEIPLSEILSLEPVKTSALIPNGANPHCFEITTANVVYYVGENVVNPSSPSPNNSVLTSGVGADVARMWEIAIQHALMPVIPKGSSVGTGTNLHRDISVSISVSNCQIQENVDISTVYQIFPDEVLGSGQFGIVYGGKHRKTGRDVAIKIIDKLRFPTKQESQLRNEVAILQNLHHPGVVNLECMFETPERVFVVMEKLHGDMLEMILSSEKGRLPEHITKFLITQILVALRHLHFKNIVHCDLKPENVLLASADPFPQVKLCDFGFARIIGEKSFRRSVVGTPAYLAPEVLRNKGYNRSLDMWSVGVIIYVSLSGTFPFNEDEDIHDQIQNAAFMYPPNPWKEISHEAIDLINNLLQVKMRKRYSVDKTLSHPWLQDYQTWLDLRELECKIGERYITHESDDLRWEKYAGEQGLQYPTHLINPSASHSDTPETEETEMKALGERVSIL

Sequence of CDK3/Cyclin E (Homo sapiens) (P24864 whole entry, looked up): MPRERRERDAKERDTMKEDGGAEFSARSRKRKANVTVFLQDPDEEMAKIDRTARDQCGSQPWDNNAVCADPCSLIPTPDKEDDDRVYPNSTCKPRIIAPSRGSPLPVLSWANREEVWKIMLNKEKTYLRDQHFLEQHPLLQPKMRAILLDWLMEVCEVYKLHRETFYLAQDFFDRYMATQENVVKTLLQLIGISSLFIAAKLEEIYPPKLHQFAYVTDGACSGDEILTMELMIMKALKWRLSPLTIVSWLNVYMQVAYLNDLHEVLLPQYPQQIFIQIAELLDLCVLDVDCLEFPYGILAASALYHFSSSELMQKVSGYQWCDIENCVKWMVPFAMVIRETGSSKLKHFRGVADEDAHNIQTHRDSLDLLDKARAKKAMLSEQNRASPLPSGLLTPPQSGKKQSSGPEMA
Sequence of CDK3/Cyclin E (Homo sapiens) (Q00526 whole entry, looked up): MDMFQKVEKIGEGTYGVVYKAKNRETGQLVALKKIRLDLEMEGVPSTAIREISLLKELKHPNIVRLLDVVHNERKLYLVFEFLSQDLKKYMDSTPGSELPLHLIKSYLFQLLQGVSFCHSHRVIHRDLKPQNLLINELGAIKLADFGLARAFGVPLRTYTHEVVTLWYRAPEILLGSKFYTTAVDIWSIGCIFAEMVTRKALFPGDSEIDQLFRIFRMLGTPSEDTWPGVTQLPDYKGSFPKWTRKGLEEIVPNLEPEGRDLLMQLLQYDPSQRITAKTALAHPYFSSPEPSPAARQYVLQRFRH

| Compound | inhibition [1] [%] | inhibition [2] [%] | inhibition [3] [%] | inhibition [4] [%] | inhibition [5] [%] |
| --- | --- | --- | --- | --- | --- |
| Nc1n[nH]c2nnc(-c3c(-c4ccccc4)nn4ccccc34)cc12 | 15.6 | 5.76 | 3.23 | -0.33 | 31.6 |
| Oc1n[nH]c2nnc(-c3c(-c4ccccc4)nn4ccccc34)cc12 | 6.43 | 0.79 | 1.33 | 0.11 | -0.59 |

From ChEMBL document CHEMBL5653615 (J Biol Chem, 2013)
